Measurements: publication PMC6401105, “Dual role of the Anopheles coluzzii Venus Kinase Receptor in both larval growth and immunity” (Scientific Reports, 2019)

Tests used:
[1] = biological target: T1, Anopheles VKR (AgVKR; VKR^WT) (Anopheles gambiae, UniProt C5H7S1); assay: GVBD of Xenopus oocytes expressing VKR; anti-phosphotyrosine Western blot; assay type: cell-based; conditions: agonist; VFT domain; ND96 medium pH 7.4, 19 °C, 18 h; not an EC50
T1 sequence (C5H7S1 26-1465): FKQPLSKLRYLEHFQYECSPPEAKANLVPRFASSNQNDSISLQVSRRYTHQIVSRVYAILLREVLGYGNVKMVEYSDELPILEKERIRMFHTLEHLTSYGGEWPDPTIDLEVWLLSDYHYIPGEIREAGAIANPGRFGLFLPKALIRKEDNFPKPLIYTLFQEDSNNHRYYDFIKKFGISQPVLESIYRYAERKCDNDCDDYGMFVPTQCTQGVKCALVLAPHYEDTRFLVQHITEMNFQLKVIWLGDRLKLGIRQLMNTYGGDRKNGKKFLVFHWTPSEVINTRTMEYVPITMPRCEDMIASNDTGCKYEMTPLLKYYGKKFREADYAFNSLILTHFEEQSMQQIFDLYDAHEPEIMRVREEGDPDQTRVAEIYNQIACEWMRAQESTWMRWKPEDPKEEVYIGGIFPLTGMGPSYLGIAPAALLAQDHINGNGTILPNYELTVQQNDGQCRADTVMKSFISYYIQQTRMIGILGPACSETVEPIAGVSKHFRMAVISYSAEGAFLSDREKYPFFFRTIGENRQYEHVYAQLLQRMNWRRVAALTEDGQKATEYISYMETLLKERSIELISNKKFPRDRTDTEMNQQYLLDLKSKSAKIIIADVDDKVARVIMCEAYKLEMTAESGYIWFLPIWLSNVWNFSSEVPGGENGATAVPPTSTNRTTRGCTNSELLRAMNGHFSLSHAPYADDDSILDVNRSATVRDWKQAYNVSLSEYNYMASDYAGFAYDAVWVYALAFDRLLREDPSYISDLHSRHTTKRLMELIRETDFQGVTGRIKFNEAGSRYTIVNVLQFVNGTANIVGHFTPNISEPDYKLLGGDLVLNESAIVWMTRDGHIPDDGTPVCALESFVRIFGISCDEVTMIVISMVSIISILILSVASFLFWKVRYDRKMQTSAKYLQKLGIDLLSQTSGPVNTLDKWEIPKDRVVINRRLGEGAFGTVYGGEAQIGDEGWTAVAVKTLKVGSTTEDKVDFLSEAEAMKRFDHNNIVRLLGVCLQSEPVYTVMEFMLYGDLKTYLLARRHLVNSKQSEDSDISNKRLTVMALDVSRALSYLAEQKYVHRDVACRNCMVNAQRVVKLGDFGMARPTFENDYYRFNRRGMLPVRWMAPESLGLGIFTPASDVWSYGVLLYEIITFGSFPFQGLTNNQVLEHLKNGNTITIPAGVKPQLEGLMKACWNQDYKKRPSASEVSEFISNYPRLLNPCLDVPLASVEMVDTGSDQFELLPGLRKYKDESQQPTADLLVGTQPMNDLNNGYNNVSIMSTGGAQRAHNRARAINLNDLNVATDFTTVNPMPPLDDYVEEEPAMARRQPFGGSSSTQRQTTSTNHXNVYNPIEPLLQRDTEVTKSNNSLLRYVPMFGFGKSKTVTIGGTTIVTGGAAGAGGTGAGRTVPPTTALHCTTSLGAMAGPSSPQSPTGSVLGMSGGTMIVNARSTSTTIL

[2] = biological target: T1, Anopheles VKR (AgVKR; VKR^WT); assay: GVBD of Xenopus oocytes expressing VKR; assay type: cell-based; conditions: agonist; VFT domain; ND96 medium pH 7.4, 19 °C, 18 h; not an EC50

| SMILES | minimal concentration to induce GVBD [1] [µM] | minimal concentration to induce GVBD [2] [mM] |
| --- | --- | --- |
| N=C(N)NCCC[C@H](N)C(=O)O [L-Arg] | 1 | – |
| N[C@@H](CS)C(=O)O [L-Cys] | – | 1 |
